In patent publication US20110293537A1, “FORMULATIONS WITH ANTI-NEOPLASTIC ACTIVITY” (priority 2008, published 2011):
Where two headings read alike, the source gives them in different places.

Assays:
[1] = system: DMBA-induced lesions (OPL, ExL) of hamster buccal pouch; details: in vivo
[2] = cited from earlier work
[3] = cited from earlier work; remark: listed apart in the source
[4] = system: buccal pouches and principal organs; test: Local toxicity of empty vehicles without DMBA induction; format: in vivo, Syrian golden hamsters (Mesocricetus auratus)
Experimental: The last thirty animals were randomly divided in three further groups (n=10 each) to evaluate the local toxicity of the empty vehicles (TE, TC and TM) without DMBA carcinogenesis induction. Topical application of EtOH, cream and mouthwash was performed in the same manner before described.
In vivo side effects were investigated after 14 weeks of E, C and M topical applications on right buccal pouches on three groups of animals (TE, TC and TM respectively).

HCPC-I cells = details: in vitro, FIG. 2
Experimental: Cells were harvested every 3-4 days with 0.25% trypsin solution (from Sigma). […] HCPC-I cells were dispensed at a density of 5×10^2/100 μl for each well in RPMI-1640 supplemented with 10% FCS. […] After 72 h of incubation, cells were supplemented with 10 μl of a stock solution (5 mg/ml) of MTT (Sigma) in phosphate buffer saline (PBS). At least 3 h later, culture medium was replaced with 100 μl of dimethyl-sulfoxide (DMSO, Sigma) and plates read at 560 nm with a “Microplate Reader model 450” (BioRad). Cell viability was expressed as average percentage of absorbance in treated cells versus control (culture medium alone).

[5] = cited from earlier work; remark: listed apart in the source
[6] = 14 weeks topical application, no DMBA

## Oc1ccc(/C=C/c2cc(O)cc(O)c2)cc1 [RV, 3,4′,5-trihydroxy-trans-stilbene]
[1]
  tolerance of topical application on oral mucosa: good tolerance
[2]; human
  oral bioavailability: very poor
[2]; in vivo
  initial half-life: 8 to 14 min
[3]; 3-OH group
  pKa: 10
[3]; 4′-OH group
  pKa: 9.3
[3]; 5-OH group
  pKa: 10.6

## CCO [EtOH, ethanol]
[4]; [6]
  gross observations of pouches and principal organs: did not reveal any macroscopic alterations
  histological HE analysis, local adverse reactions: absence of local adverse reactions

## hydroxypropyl-β-cyclodextrin [HPβCD]
[4]; in vivo concentrations
  toxic signs or adverse effects in chronic treated hamsters: did not display any toxic signs or adverse effects
HCPC-I cells
  inhibition of cell growth by HPβCD: inhibition of cell growth only at extremely high concentrations
[5]; almost 14 days
  dose with main adverse event (soft stools and diarrhea): 16-24 g HPβCD/day
[5]; orally administered
  oral toxicity: practically non-toxic
